In patent US20120196793A1, “BIOMARKERS FOR IAP INHIBITOR COMPOUNDS” (priority 2009, published 2012):

Tests used:
TNFα [1] = experiment: Secreted TNFα ELISA in a panel of cancer cell lines before and 24 hours after compound addition; assay type: cell-based, Human; conditions: sensitive vs insensitive cancer cell lines (3-day viability assays, up to 10 uM)
Procedure: To test whether the engagement of the TNFα signaling pathway is requisite for single agent activity in vitro, a panel of cancer cell lines is evaluated for sensitivity to Compound A while in parallel, secreted TNFα expression levels are assessed by ELISA before and 24 hours after compound addition. […] Increased basal TNFα levels also positively correlate with sensitivity to Compound A (FIG. 8).
(§1) On day one, cancer cells are plated into two 96-well, clear, flat bottom plates. All wells in row A contain 200 uL of media. All wells in rows B-G contain 5000 cells per well in 180 ul of RPMI media with 10% FBS. Plates are then incubated overnight for 18 hours at 37 C, 5% CO2. […] TNFα levels in the media are measured using the R&D Quantikine Human TNFα High Sensitivity ELISA assay, catalog number HSTA00D. […] The colorimetric readout is measured on a spectrometer at 490nM within 30 minutes of adding the stop solution. Raw data is normalized to account for background noise, duplicate values are averaged and concentrations are calculated from a standard curve (FIG. 8). […] CTG measures the amount of ATP released from viable cells that can be measured by a luminescent plate reader. Cells with CTG are incubated for ten minutes at room temperature and read on a luminescent plate reader. Raw data is normalized to account for background noise, duplicate values are averaged and percent control growth is calculated.

TNFα [2] = experiment: TNFα ELISA in SK-OV-3 cells with shRNA knockdown of NFkB pathway nodes; assay type: cell-based, Human
Procedure: To elucidate this mechanism, nodes of the canonical and non-canonical NFkB pathways and are knocked down and induction of TNFα expression, a marker of NFkB activation, after treatment with the Smac mimetic compound Compound A, is assessed. […] Therefore, tumors with active or functional canonical NFkB signaling, as evidenced by TNFα expression or other markers of active NFkB signaling, are more likely to respond to Compound A.
as §1, with “one, SKOV” for “one,”, “10% FBS and 1 ug/mL of puromycin.” for “10% FBS.”, “Human TNFalpha” for “Human TNFα”, “at 490 nM” for “at 490nM”, “(FIG. 9).” for “(FIG. 8).”, “reader. […]” for “reader. Raw data is normalized to account for background noise, duplicate values are averaged and percent control growth is calculated.”

TNFα [3] = experiment: TNFα ELISA of tumor lysates from orthotopic MDA-MB-231 xenografts after a single oral dose; assay type: in vivo, mice; conditions: 39 days after tumor cell implantation, mean tumor volume approximately 141 mm3
Procedure: To assess whether the induction of TNFα observed in the MDA-MB-231 breast tumor cell line translated to an in vivo setting, an experiment is performed in mice harboring orthotopically implanted MBA-MD-231 tumors.
A single oral dose of Compound A is administered 39 days following tumor cell implantation when mean tumor volumes reached approximately 141 mm3. Tumors are harvested from each animal, lysed, and analyzed by ELISA to determine TNFα concentrations.

[4] = system: patient-derived tumor models representing both triple negative breast cancer and Non Small Cell Lung Carcinoma (NSCLC); experiment: Single agent tumor growth inhibition (% T/C) in patient-derived xenograft models; assay type: in vivo, nude mice; conditions: 18 patient-derived tumor models
Text: Patient-derived xenograft models in which human tumors are surgically resected then directly implanted and subsequently passaged in nude mice are potentially more clinically relevant than cell line models since there is no selective pressure for two dimensional growth on a plastic stratum.
Compound A has been tested for single agent activity in 18 patient-derived tumor models representing both triple negative breast cancer and Non Small Cell Lung Carcinoma (NSCLC) models. Tumor growth inhibition by Compound A is reported as % T/C (percent growth of tumors in mice treated with Compound A relative to the growth of tumors in Control vehicle treated mice). Complete regression of a tumor would be reported as −100% T/C, tumor stasis (no growth) would be reported as 0% T/C, and no effect would be reported as 100% T/C. […] Stasis (T/C≦40%) has been observed in 25% of primary models assessed.

[5] = system: MDA-MB-231 breast cancer cell line; experiment: In vitro induction of TNFα, caspase activation and cell death in tumor cell lines; assay type: cell-based; conditions: in vitro assays, variety of tumor cell lines including MDA-MB-231

**Q.** What does the source list for `CN[C@@H](C)C(=O)N[C@H](C(=O)N1CCC[C@H]1c1nc(C(=O)c2ccc(F)cc2)cs1)C1CCCCC1` [Compound A, (S)—N—((S)-1-Cyclohexyl-2-{(S)-2-[4-(4-fluoro-benzoyl)-thiazol-2-yl]-pyrrolidin-1-yl}-2-oxo-ethyl)-2-methylamino-propionamide]?
**A.** induction of secreted TNFα (TNFα [1]): induced TNF-alpha in sensitive but not insensitive cancer cell lines; Compound A-mediated induction of TNFα after knockdown of RelB (TNFα [2]; SK-OV-3, shRNA-mediated knockdown of RelB (non-canonical NFkB pathway)): does not impact; Compound A-mediated TNF induction after knockdown of RelA (TNFα [2]; SK-OV-3 ovarian carcinoma cell line, shRNA-mediated knockdown of RelA (canonical NFkB pathway)): ablated TNF induction; increase in TNFα in MDA-MB-231 tumor lysates (TNFα [3]): ~10 fold; range of responses (% T/C) [4]: from tumor regression to no effect; share of primary models in which stasis (T/C≦40%) was observed [4]: 25%; induction of TNFα, activation of caspases and subsequent cell death [5]: induces the induction of TNFα, activation of caspases and subsequent cell death
